Experimental data taken from the supplement of paper PMC4628005.

Tests used:
Details in all cases: drug exposure time: 96 h
Bortezomib = compound: CC(C)C[C@H](NC(=O)[C@H](Cc1ccccc1)NC(=O)c1cnccn1)B(O)O [Bortezomib]
Experimental: (§1)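 Same SRB 96 h IC50 screen on breast cancer cell lines (RPMI 1640 + 10% FBS, collagen I-coated 96-well plates, triplicates, 12 dilutions), for drugs with a different dose range: Bortezomib up to 2e-5 M; Sirolimus and 17-AAG up to 2e-6 M. Sirolimus values at the 2e-6 M top dose are censored.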

Sirolimus = compound: CO[C@H]1C[C@@H]2CC[C@@H](C)[C@@](O)(O2)C(=O)C(=O)N2CCCC[C@H]2C(=O)O[C@H]([C@H](C)C[C@@H]2CC[C@@H](O)[C@H](OC)C2)CC(=O)[C@H](C)/C=C(\C)[C@@H](O)[C@@H](OC)C(=O)[C@H](C)C[C@H](C)/C=C/C=C/C=C/1C [Sirolimus]
Experimental: as §1

17-AAG = compound: C=CCNC1=C2C[C@@H](C)C[C@H](OC)[C@H](O)[C@@H](C)/C=C(\C)[C@H](OC(N)=O)[C@@H](OC)/C=C\C=C(/C)C(=O)NC(=CC1=O)C2=O [17-AAG]
Experimental: as §1

Vorinostat = compound: O=C(CCCCCCC(=O)Nc1ccccc1)NO [Vorinostat]
Experimental: (§2)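 Breast cancer cell lines were grown in RPMI 1640 with 10% FBS on collagen I-coated 96-well plates and treated for 96 h (from 24 h after seeding) with 12 dilutions per drug, in triplicate. Growth was read by sulforhodamine B total-protein staining (absorbance 570 nm) relative to diluent control, and IC50 was calculated. The top dose was 1e-5 M for most drugs; Bortezomib went to 2e-5 M and Sirolimus and 17-AAG to 2e-6 M[…].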

Brivanib = compound: Cc1cc2c(F)c(Oc3ncnn4cc(OC[C@@H](C)O)c(C)c34)ccc2[nH]1 [Brivanib]
Experimental: as §2

Doxorubicin = compound: COc1cccc2c1C(=O)c1c(O)c3c(c(O)c1C2=O)C[C@@](O)(C(=O)CO)C[C@@H]3O[C@H]1C[C@H](N)[C@H](O)[C@H](C)O1 [Doxorubicin]
Experimental: as §2

Gefitinib = compound: COc1cc2ncnc(Nc3ccc(F)c(Cl)c3)c2cc1OCCCN1CCOCC1 [Gefitinib]
Experimental: as §2

Paclitaxel = compound: CC(=O)O[C@H]1C(=O)[C@@]2(C)[C@H]([C@H](OC(=O)c3ccccc3)[C@]3(O)C[C@H](OC(=O)[C@H](O)[C@@H](NC(=O)c4ccccc4)c4ccccc4)C(C)=C1C3(C)C)[C@]1(OC(C)=O)CO[C@@H]1C[C@@H]2O [Paclitaxel]
Experimental: as §2

Mitoxantrone = compound: O=C1c2c(O)ccc(O)c2C(=O)c2c(NCCNCCO)ccc(NCCNCCO)c21 [Mitoxantrone]
Experimental: as §2

Cisplatin = compound: N.N.[Cl][Pt][Cl] [Cisplatin]
Experimental: as §2

Vandetanib = compound: COc1cc2/c(=N/c3ccc(Br)cc3F)nc[nH]c2cc1OCC1CCN(C)CC1 [Vandetanib]
Experimental: as §2

MI-219 = compound: CC(C)(C)C[C@H]1N[C@@H](C(=O)NCC[C@H](O)CO)[C@H](c2cccc(Cl)c2)[C@@]12C(=O)Nc1cc(Cl)c(F)cc12 [MI-219]
Experimental: as §2

Methotrexate = compound: CN(Cc1cnc2nc(N)nc(N)c2n1)c1ccc(C(=O)N[C@@H](CCC(=O)O)C(=O)O)cc1 [Methotrexate]
Experimental: as §2

Erlotinib = compound: C#Cc1cccc(Nc2ncnc3cc(OCCOC)c(OCCOC)cc23)c1 [Erlotinib]
Experimental: as §2

Dasatinib = compound: Cc1nc(Nc2ncc(C(=O)Nc3c(C)cccc3Cl)s2)cc(N2CCN(CCO)CC2)n1 [Dasatinib]
Experimental: as §2

Belinostat = compound: O=C(/C=C/c1cccc(S(=O)(=O)Nc2ccccc2)c1)NO [Belinostat]
Experimental: as §2

Nutlin-3 = compound: COc1ccc(C2=N[C@@H](c3ccc(Cl)cc3)[C@@H](c3ccc(Cl)cc3)N2C(=O)N2CCNC(=O)C2)c(OC(C)C)c1 [Nutlin-3]
Experimental: as §2

Tamoxifen = compound: CC/C(=C(\c1ccccc1)c1ccc(OCCN(C)C)cc1)c1ccccc1 [Tamoxifen]
Experimental: as §2

Serdemetan = compound: c1ccc2c(CCNc3ccc(Nc4ccncc4)cc3)c[nH]c2c1 [Serdemetan]
Experimental: as §2

Azacitidine = compound: Nc1ncn([C@@H]2O[C@H](CO)[C@@H](O)[C@H]2O)c(=O)n1 [Azacitidine]
Experimental: as §2

Quisinostat = compound: Cn1cc(CNCC2CCN(c3ncc(C(=O)NO)cn3)CC2)c2ccccc21 [Quisinostat]
Experimental: as §2

5-Fluorouracil = compound: O=c1[nH]cc(F)c(=O)[nH]1 [5-Fluorouracil]
Experimental: as §2

Sorafenib = compound: CNC(=O)c1cc(Oc2ccc(NC(=O)Nc3ccc(Cl)c(C(F)(F)F)c3)cc2)ccn1 [Sorafenib]
Experimental: as §2

Lapatinib = compound: CS(=O)(=O)CCNCc1ccc(-c2ccc3ncnc(Nc4ccc(OCc5cccc(F)c5)c(Cl)c4)c3c2)o1 [Lapatinib]
Experimental: as §2

Panobinostat = compound: Cc1[nH]c2ccccc2c1CCNCc1ccc(/C=C/C(=O)NO)cc1 [Panobinostat]
Experimental: as §2

ARQ197 = compound: O=C1NC(=O)[C@@H](c2cn3c4c(cccc24)CCC3)[C@@H]1c1c[nH]c2ccccc12 [ARQ197]
Experimental: as §2

Decitabine = compound: Nc1ncn([C@H]2C[C@H](O)[C@@H](CO)O2)c(=O)n1 [Decitabine]
Experimental: as §2

Docetaxel = compound: CC(=O)O[C@@]12CO[C@@H]1C[C@H](O)[C@@]1(C)C(=O)[C@H](O)C3=C(C)[C@@H](OC(=O)[C@H](O)[C@@H](NC(=O)OC(C)(C)C)c4ccccc4)C[C@@](O)([C@@H](OC(=O)c4ccccc4)[C@H]21)C3(C)C [Docetaxel]
Experimental: as §2

Tipifarnib = compound: Cn1cncc1[C@@](N)(c1ccc(Cl)cc1)c1ccc2c(c1)c(-c1cccc(Cl)c1)cc(=O)n2C [Tipifarnib]
Experimental: as §2

Sunitinib = compound: CCN(CC)CCNC(=O)c1c(C)[nH]c(/C=C2\C(=O)Nc3ccc(F)cc32)c1C [Sunitinib]
Experimental: as §2

Row | Test System | IC50 (SRB growth assay) (Bortezomib) | IC50 (SRB growth assay) (Sirolimus) | IC50 (SRB growth assay) (17-AAG) | IC50 (SRB growth assay) (Vorinostat) | IC50 (SRB growth assay) (Brivanib) | IC50 (SRB growth assay) (Doxorubicin) | IC50 (SRB growth assay) (Gefitinib) | IC50 (SRB growth assay) (Paclitaxel) | IC50 (SRB growth assay) (Mitoxantrone) | IC50 (SRB growth assay) (Cisplatin) | IC50 (SRB growth assay) (Vandetanib) | IC50 (SRB growth assay) (MI-219) | IC50 (SRB growth assay) (Methotrexate) | IC50 (SRB growth assay) (Erlotinib) | IC50 (SRB growth assay) (Dasatinib) | IC50 (SRB growth assay) (Belinostat) | IC50 (SRB growth assay) (Nutlin-3) | IC50 (SRB growth assay) (Tamoxifen) | IC50 (SRB growth assay) (Serdemetan) | IC50 (SRB growth assay) (Azacitidine) | IC50 (SRB growth assay) (Quisinostat) | IC50 (SRB growth assay) (5-Fluorouracil) | IC50 (SRB growth assay) (Sorafenib) | IC50 (SRB growth assay) (Lapatinib) | IC50 (SRB growth assay) (Panobinostat) | IC50 (SRB growth assay) (ARQ197) | IC50 (SRB growth assay) (Decitabine) | IC50 (SRB growth assay) (Docetaxel) | IC50 (SRB growth assay) (Tipifarnib) | IC50 (SRB growth assay) (Sunitinib)
1 | T 47 D | 1.7 nM | 0.143 nM | 913 nM | 828 nM | > 10000 nM | 10.4 nM | 8770 nM | 1.72 nM | 2.65 nM | > 10000 nM | 2520 nM | > 10000 nM | > 10000 nM | 7140 nM | > 10000 nM | 239 nM | > 10000 nM | 3420 nM | 1100 nM | 7300 nM | 8.14 nM | 2800 nM | 2730 nM | 2210 nM | 10.5 nM | 1460 nM | > 10000 nM | 0.62 nM | 403 nM | 4310 nM
2 | HCC 1395 | 5.53 nM | 0.636 nM | 140 nM | 2390 nM | > 10000 nM | 55.5 nM | > 10000 nM | 1.76 nM | 26.1 nM | > 10000 nM | 7740 nM | > 10000 nM | 1940 nM | > 10000 nM | > 10000 nM | 1070 nM | > 10000 nM | 7580 nM | 1520 nM | 2180 nM | 13 nM | 3750 nM | 6310 nM | 3750 nM | 26.6 nM | 381 nM | > 10000 nM | 0.408 nM | 469 nM | 8600 nM
3 | HCC 70 | 2.84 nM | 0.222 nM | 37.3 nM | 781 nM | > 10000 nM | 40.6 nM | 9360 nM | 2.08 nM | 74.3 nM | > 10000 nM | 3960 nM | > 10000 nM | 30.1 nM | > 10000 nM | > 10000 nM | 356 nM | > 10000 nM | > 10000 nM | 1570 nM | 2380 nM | 5.48 nM | 5360 nM | 6250 nM | 3750 nM | 8.26 nM | 324 nM | 2360 nM | 0.539 nM | 85.1 nM | 6810 nM
4 | MDA-MB 361 | 6.68 nM | 0.259 nM | 41.4 nM | 723 nM | > 10000 nM | 67 nM | 4600 nM | 4.81 nM | 25.9 nM | > 10000 nM | 4370 nM | > 10000 nM | 729 nM | 3870 nM | 6020 nM | 469 nM | > 10000 nM | 8840 nM | 3950 nM | > 10000 nM | 3.95 nM | > 10000 nM | 5770 nM | 499 nM | 8.08 nM | 417 nM | > 10000 nM | 1.41 nM | 2210 nM | > 10000 nM
5 | BT 20 | 13.9 nM | 0.232 nM | 535 nM | 586 nM | > 10000 nM | 10.5 nM | > 10000 nM | 1.79 nM | 10.9 nM | > 10000 nM | 9410 nM | > 10000 nM | > 10000 nM | 6140 nM | > 10000 nM | 197 nM | > 10000 nM | 49.4 nM | 2270 nM | 1140 nM | 8.27 nM | 2830 nM | 3780 nM | 5800 nM | 7.93 nM | 511 nM | > 10000 nM | 0.541 nM | 31.9 nM | > 10000 nM
6 | MCF 7 | 8.35 nM | 58.2 nM | 93.4 nM | 783 nM | > 10000 nM | 8.94 nM | > 10000 nM | 1.79 nM | 14.8 nM | > 10000 nM | > 10000 nM | 815 nM | 13.9 nM | > 10000 nM | > 10000 nM | 419 nM | 2010 nM | 5690 nM | 1690 nM | 3730 nM | 5.75 nM | 2210 nM | 5100 nM | 4000 nM | 12 nM | 260 nM | 472 nM | 1.12 nM | 28.6 nM | 4470 nM
7 | HCC 1143 | 4.31 nM | 0.62 nM | 56.6 nM | 857 nM | > 10000 nM | 16.5 nM | 1040 nM | 1.52 nM | 3.93 nM | > 10000 nM | 1830 nM | > 10000 nM | 24.7 nM | 1080 nM | 5110 nM | 350 nM | > 10000 nM | 4990 nM | 921 nM | 2070 nM | 4.84 nM | 1980 nM | 6060 nM | 2250 nM | 11 nM | 481 nM | 148 nM | 0.306 nM | 749 nM | 4730 nM
